Laboratory results published in ChEMBL document CHEMBL5500372, “Novel natural osthole-inspired amphiphiles as membrane targeting antibacterials against methicillin-resistant Staphylococcus aureus (MRSA)” (Eur J Med Chem, 2024).
The source made the active and inactive calls. The rule behind the calls is not given here.

Key:
Staphylococcus aureus [1] = assay: Antibacterial activity against methicillin-resistant Staphylococcus aureus clinical isolate 16 infected in female KM mouse skin abscess model assessed as effect on abscess in back skin at 5 mg/kg, sc measured after 24 hrs; assay type: functional, organism-based
[2] = Toxicity in female KM mouse skin abscess model infected with methicillin-resistant Staphylococcus aureus clinical isolate 16 assessed as histological abnormalities in spleen at 5 mg/kg, sc measured after 24 hrs by H and E staining based analysis; assay type: organism-based; details: in vivo
[3] = Toxicity in female KM mouse skin abscess model infected with methicillin-resistant Staphylococcus aureus clinical isolate 16 assessed as effect on kidney at 5 mg/kg, sc measured after 24 hrs by H and E staining based analysis; assay type: organism-based; details: in vivo
Staphylococcus aureus [4] = assay: Antibacterial activity against methicillin-resistant Staphylococcus aureus clinical isolate 16 infected in female KM mouse skin abscess model assessed as reduction in bacterial load at 5 mg/kg, sc measured after 24 hrs relative to control; assay type: functional; design: scale not given: the % may be the effect or the level left
[5] = Toxicity in female KM mouse skin abscess model infected with methicillin-resistant Staphylococcus aureus clinical isolate 16 assessed as effect on spleen at 5 mg/kg, sc measured after 24 hrs by H and E staining based analysis; assay type: organism-based; details: in vivo
Staphylococcus aureus [6] = assay: Antibacterial activity against methicillin-resistant Staphylococcus aureus clinical isolate 16 infected in female KM mouse skin abscess model assessed as reduction in number of MRSA cells at 5 mg/kg, sc measured after 24 hrs; assay type: functional, organism-based
[7] = Toxicity in female KM mouse skin abscess model infected with methicillin-resistant Staphylococcus aureus clinical isolate 16 assessed as effect on heart at 5 mg/kg, sc measured after 24 hrs by H and E staining based analysis; assay type: organism-based; details: in vivo
Staphylococcus aureus [8] = assay: Antibacterial activity against methicillin-resistant Staphylococcus aureus clinical isolate 16 infected in female KM mouse skin abscess model assessed as reduction in inflammatory cells at 5 mg/kg, sc measured after 24 hrs by H and E staining based analysis; assay type: functional, organism-based
[9] = Toxicity in female KM mouse skin abscess model infected with methicillin-resistant Staphylococcus aureus clinical isolate 16 assessed as histological abnormalities in liver at 5 mg/kg, sc measured after 24 hrs by H and E staining based analysis; assay type: organism-based; details: in vivo
Staphylococcus aureus [10] = assay: Antibacterial activity against methicillin-resistant Staphylococcus aureus clinical isolate 16 infected in female KM mouse skin abscess model assessed as reduction in IL-6 level at 5 mg/kg, sc measured after 24 hrs by ELISA method; assay type: functional, organism-based
[11] = Toxicity in female KM mouse skin abscess model infected with methicillin-resistant Staphylococcus aureus clinical isolate 16 assessed as effect on lung at 5 mg/kg, sc measured after 24 hrs by H and E staining based analysis; assay type: organism-based; details: in vivo
Staphylococcus aureus [12] = assay: Antibacterial activity against methicillin-resistant Staphylococcus aureus clinical isolate 16 infected in female KM mouse skin abscess model assessed as log reduction in bacterial load at 5 mg/kg, sc measured after 24 hrs (reference value: 8.508 log10CFU/g); assay type: functional
Staphylococcus aureus [13] = assay: Bactericidal activity against methicillin-resistant Staphylococcus aureus clinical isolate 16 assessed as eradication of bacteria at 8 times MIC measured after 8 hrs by time-kill assay; assay type: functional, organism-based
[14] = Toxicity in female KM mouse skin abscess model infected with methicillin-resistant Staphylococcus aureus clinical isolate 16 assessed as histological abnormalities in kidney at 5 mg/kg, sc measured after 24 hrs by H and E staining based analysis; assay type: organism-based; details: in vivo
Staphylococcus aureus [15] = assay: Antibacterial activity against methicillin-resistant Staphylococcus aureus clinical isolate 16 infected in female KM mouse skin abscess model assessed as effect on abscess in intradermal tissue at 5 mg/kg, sc measured after 24 hrs; assay type: functional, organism-based
[16] = Toxicity in female KM mouse skin abscess model infected with methicillin-resistant Staphylococcus aureus clinical isolate 16 assessed as histological abnormalities in lung at 5 mg/kg, sc measured after 24 hrs by H and E staining based analysis; assay type: organism-based; details: in vivo
[17] = Toxicity in female KM mouse skin abscess model infected with methicillin-resistant Staphylococcus aureus clinical isolate 16 assessed as histological abnormalities in heart at 5 mg/kg, sc measured after 24 hrs by H and E staining based analysis; assay type: organism-based; details: in vivo
[18] = Toxicity in female KM mouse skin abscess model infected with methicillin-resistant Staphylococcus aureus clinical isolate 16 assessed as effect on liver at 5 mg/kg, sc measured after 24 hrs by H and E staining based analysis; assay type: organism-based; details: in vivo
Staphylococcus aureus [19] = assay: Bactericidal activity against Staphylococcus aureus ATCC 29213 assessed as eradication of bacteria at 8 times MIC measured after 8 hrs by time-kill assay; assay type: functional, organism-based
Staphylococcus aureus [20] = assay: Antibacterial activity against methicillin-resistant Staphylococcus aureus clinical isolate 16 infected in female KM mouse skin abscess model assessed as reduction in TNF-alpha level at 5 mg/kg, sc measured after 24 hrs by ELISA method; assay type: functional, organism-based

## CN[C@H](CC(C)C)C(=O)N[C@H]1C(=O)N[C@@H](CC(N)=O)C(=O)N[C@H]2C(=O)N[C@H]3C(=O)N[C@H](C(=O)N[C@H](C(=O)O)c4cc(O)cc(O)c4-c4cc3ccc4O)[C@H](O)c3ccc(c(Cl)c3)Oc3cc2cc(c3O[C@@H]2O[C@H](CO)[C@@H](O)[C@H](O)[C@H]2O[C@H]2C[C@](C)(N)[C@H](O)[C@H](C)O2)Oc2ccc(cc2Cl)[C@H]1O [VANCOMYCIN]
Staphylococcus aureus [1]
  Activity: Active
[2]
  Activity: Non-Toxic
[3]
  Activity: Non-Toxic
Staphylococcus aureus [4]
  Activity: 98.93%
[5]
  Activity: Non-Toxic
Staphylococcus aureus [6]
  Activity: Active
[7]
  Activity: Non-Toxic
Staphylococcus aureus [8]
  Activity: Active
[9]
  Activity: Non-Toxic
Staphylococcus aureus [10]
  Activity: Active
[11]
  Activity: Non-Toxic
Staphylococcus aureus [12]
  Activity: 1.922 log10CFU/g
Staphylococcus aureus [13]
  Activity: inactive
[14]
  Activity: Non-Toxic
Staphylococcus aureus [15]
  Activity: Active
[16]
  Activity: Non-Toxic
[17]
  Activity: Non-Toxic
[18]
  Activity: Non-Toxic
Staphylococcus aureus [19]
  Activity: inactive
Staphylococcus aureus [20]
  Activity: Active
